# How the values were obtained:
# Format in all cases: binding
# Conditions in all cases: Compound Concentration 10 µM
# [1] = molecular target: T1, panel of 442 kinases (Homo sapiens, UniProt P15056, V600E)
# T1 construct: purchased KINOMEscan
# Excerpt: (§1) We assessed the selectivity of members of this scaffold using the KINOMEscan methodology across a near comprehensive panel of 442 kinases [[18,27]].
# [2] = molecular target: T2, panel of 442 kinases (Homo sapiens, UniProt P53350)
# T2 construct: purchased KINOMEscan
# Excerpt: as §1
# [3] = molecular target: T3, panel of 442 kinases (Homo sapiens, UniProt Q86YV6)
# T3 construct: purchased KINOMEscan
# T3 sequence (Q86YV6 1-388): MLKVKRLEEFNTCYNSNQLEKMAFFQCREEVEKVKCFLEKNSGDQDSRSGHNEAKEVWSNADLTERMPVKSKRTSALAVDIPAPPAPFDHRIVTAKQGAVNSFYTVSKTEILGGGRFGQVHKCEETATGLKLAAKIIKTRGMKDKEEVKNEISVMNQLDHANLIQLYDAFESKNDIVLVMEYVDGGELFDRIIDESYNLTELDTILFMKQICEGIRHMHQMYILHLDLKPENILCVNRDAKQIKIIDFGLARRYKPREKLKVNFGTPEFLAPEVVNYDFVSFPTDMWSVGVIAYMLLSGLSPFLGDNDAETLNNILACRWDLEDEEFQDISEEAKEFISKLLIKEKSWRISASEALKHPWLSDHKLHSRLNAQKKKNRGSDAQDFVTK
# Excerpt: as §1
# T1 sequence (P15056 whole entry V600E): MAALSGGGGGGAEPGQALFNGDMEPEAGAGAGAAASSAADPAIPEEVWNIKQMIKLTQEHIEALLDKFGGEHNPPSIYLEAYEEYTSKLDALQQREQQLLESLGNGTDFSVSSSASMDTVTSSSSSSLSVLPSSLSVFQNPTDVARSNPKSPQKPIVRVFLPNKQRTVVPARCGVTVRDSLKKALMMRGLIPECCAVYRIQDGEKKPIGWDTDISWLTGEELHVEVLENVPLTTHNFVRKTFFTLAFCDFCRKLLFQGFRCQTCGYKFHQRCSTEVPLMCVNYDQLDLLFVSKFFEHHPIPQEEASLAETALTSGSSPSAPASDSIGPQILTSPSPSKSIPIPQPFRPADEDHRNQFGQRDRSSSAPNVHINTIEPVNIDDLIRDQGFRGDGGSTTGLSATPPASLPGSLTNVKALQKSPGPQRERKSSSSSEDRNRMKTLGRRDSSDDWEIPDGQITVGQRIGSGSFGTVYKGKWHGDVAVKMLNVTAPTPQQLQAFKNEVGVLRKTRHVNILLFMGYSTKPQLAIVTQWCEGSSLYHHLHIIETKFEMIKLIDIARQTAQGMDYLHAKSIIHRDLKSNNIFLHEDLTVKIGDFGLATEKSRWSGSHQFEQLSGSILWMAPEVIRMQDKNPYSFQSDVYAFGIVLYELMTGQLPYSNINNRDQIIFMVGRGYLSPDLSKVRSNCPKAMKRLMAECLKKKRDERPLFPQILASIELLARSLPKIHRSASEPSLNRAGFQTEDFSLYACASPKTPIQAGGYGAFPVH
# T2 sequence (P53350 whole entry): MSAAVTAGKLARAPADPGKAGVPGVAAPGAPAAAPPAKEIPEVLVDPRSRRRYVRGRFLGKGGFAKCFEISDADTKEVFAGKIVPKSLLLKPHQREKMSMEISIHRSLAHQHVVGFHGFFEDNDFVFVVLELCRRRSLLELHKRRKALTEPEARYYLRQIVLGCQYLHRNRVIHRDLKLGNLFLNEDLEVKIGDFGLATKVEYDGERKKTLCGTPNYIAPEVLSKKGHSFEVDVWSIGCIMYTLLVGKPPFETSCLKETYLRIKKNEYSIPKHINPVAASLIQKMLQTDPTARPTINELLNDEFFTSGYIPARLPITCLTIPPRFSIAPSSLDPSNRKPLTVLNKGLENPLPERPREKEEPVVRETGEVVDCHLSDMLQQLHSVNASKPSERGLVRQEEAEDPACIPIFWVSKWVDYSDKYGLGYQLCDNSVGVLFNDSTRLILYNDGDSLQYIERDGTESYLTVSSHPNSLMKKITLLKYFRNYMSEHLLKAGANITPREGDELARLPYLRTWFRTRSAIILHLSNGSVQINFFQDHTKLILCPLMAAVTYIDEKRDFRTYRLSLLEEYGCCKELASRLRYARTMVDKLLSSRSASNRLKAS
SMILES,KINOMEscan: BRAF(V600E) [1],KINOMEscan: PLK1 [2],KINOMEscan: MYLK4 [3]
CCOc1cc(C(=O)N2CCC(N3CCN(C)CC3)CC2)ccc1Nc1ncc2c(n1)N(C1CCCC1)c1ccccc1C(=O)N2C [Compound 26],100,95,100
"COc1cc(C(=O)N2CCC(N3CCN(C)CC3)CC2)ccc1Nc1ncc2c(n1)N(C1CCCC1)c1ccccc1C(=O)N2C [Compound 25, 11-cyclopentyl-2-((2-methoxy-4-(4-(4-methylpiperazin-1-yl)piperidine-1-carbonyl)phenyl)amino)-5-methyl-5H-benzo[e]pyrimido[5,4-b][1,4]diazepin-6(11H)-one]",100,43,88
COc1cc(C(=O)N2CCC(N3CCN(C)CC3)CC2)ccc1Nc1ncc2c(n1)N1CCc3cccc(c31)C(=O)N2C [Compound 24],–,0.2,78
COc1cc(C(=O)N2CCC(N3CCN(C)CC3)CC2)ccc1Nc1ncc2c(n1)N(C)c1ccccc1C(=O)N2C [15 (LRRK2-IN-1)],100,0.7,80
